# Data taken from patent US7863304B2, “Analogs of glycyl-prolyl-glutamate” (priority 2001, dated 2011).
# Where a SMILES comes first, the peptide text is derived from it. [ ]: non-standard residue; d: D form. ξ: configuration not given here. Hyp = O=C(O)[C@@H]1C[C@@H](O)CN1; Nva = CCC[C@H](N)C(=O)O; ξPip = O=C(O)C1CCCCN1; Aib = CC(C)(N)C(=O)O
# Key:
# [1] = tested on: cerebellar cells; experiment: Cerebellar microexplant culture, 3-NP/glutamate injury, count of cells with neurites; format: cell-based, Wistar rats; settings: toxin alone, cerebellar cell culture (FIG. 7)
# Protocol: Postnatal day 3, 4 or 8 Wistar rats were used for the study. The rats were sacrificed and placed in ice for 1 minute, decapitated and the cerebellum removed and placed on ice. Cerebellum tissue was placed in 1 ml of 0.65% glucose-supplemented PBS (10 μl 65% stock D (+)glucose/1 ml PBS) in a large Petri dish, chopped up into smaller sections and triturated with a 1 ml insulin syringe via a 23 gauge (0.4 mm) needle, and then squirted back into the glucose solution in the Petri dish. The tissue was sieved through (125 µm pore size) and centrifuged (2 minutes at 60×g) twice to exchange the medium into serum-free BSA-supplemented START V medium (Biochrom, Germany). […]
# After explants were exposed to a GPE analog of this invention for the study period, cells were then rinsed in PBS and then fixed in increasing concentrations of paraformaldehyde (500 μl of 0.4% PFA was applied; then 1.2% PFA; then 3% PFA and finally 4% PFA (each fixation step: 2-3 minutes). Finally, the microexplants were rinsed in PBS. Neurons in the explants were then evaluated for morphology (presence of neurites) and counted as live cells per microscopic field. Four fields displaying highest cell density were counted per cover slip and the data presented as mean ±standard error of the mean (SEM); n=4 each. Statistical significance was evaluated by using the non-paired Student's t-test.
# [2] = Rat cortical dissociated cell culture, okadaic acid injury, MTT viability; settings: Wistar, rat
# Protocol: (§1) Embryonic E18/19 wistar rats were used for the generation of dissociated cortical cell cultures. The rear portion (occipital cortex-area 17/18 of the visual cortex) of the cortical plate is used for the generation of the cultures. Cells were grown for 3-10 DIV in one part of serum-free medium and one part of rat cortex-derived cultivated astrocytic-conditioned medium (ACM).
# (§2) 96-well tissue culture plates were coated with 0.2 mg/ml poly-L-lysine followed by 2 μg/ml laminin. Subsequently 60 μl of ACM were added per well and plate was stored at 37° C. until plating of cortical cells.
# (§3) Whole cortices of P1/2 wistar pups were collected into separate tubes containing 4 ml DMEM-1 cortex per tube. The tissues were triturated a few times with a 5 ml sterile pipette to break up them up into smaller pieces. Each tube was poured separately into a reagent reservoir and triturated once with a 5 ml syringe and 18 gauge drawing needle. The mixture was then filtered through a 100 μm cell strainer into a 50 ml centrifuge tube. The strainer was washed with 5 ml DMEM. The cell solution was extended with DMEM to 50 ml of volume. The solution was then centrifuged for 5mins at 350g at RT. The cells were resuspended in 40 ml of DMEM+10% FBS. The cells were then reconstituted into a 75 cm^2 cell flask and incubated at 37° C./10% CO2/100% humidity in […]. […] The medium was replaced after 1 day with fresh DMEM+10% FBS. The cell growth was monitored and media+FBS replaced twice weekly until the cells were confluent (˜10-14 days). Once the confluency reached, the cells were washed once with 20 ml sterile PBS. Cells were incubated for 3 days in 30 ml Neurobasal medium+B27 supplement to maintain cells under serum-free conditions. Cell supernatant was then filter through a 0.22 μm sterile filter and frozen in aliquots at −80° C.
# (§4) The tissues were stored in PBS+glucose solution on ice until all dissection was completed. Tissue material was centrifuged at 350g for 5 mins at RT. The supernatant was removed and cell pellets were incubated in 5 ml trypsin/EDTA solution (Invitrogen) for 8 mins at 37° C. Proteolysis was stopped by addition of one part of DMEM+10% FBS. Subsequently, the tissued were centrifuged at 350g for 5 mins at RT. The pellet was collected, washed (centrifugation) twice in NB/B27 medium (Invitrogen) and resuspended in 1 ml NB/B27 medium. Tissue was transferred into a petri dish and triturated twice with a glass pasteur pipette attached to a pipette to break up large pieces of tissue. The tissue was then triturated twice using a 1 ml syringe and 22 gauge needle and passed through a 100 μm cell strainer to remove remaining large tissue pieces. The cells were washed with 1 ml NB/B27. The number of viable neurons was counted and the percentage of cell viability determined. […] The cortical cells were incubated at 37° C./10% CO2/100% humidity.
# (§5) In order to induce neuronal injury the phosphatase 1/2A antagonist okadaic acid is added for 24 hrs. Simultaneously, an analog of GPE of this invention was administered. After 24 hrs metabolic activity was measured by addition of MTT for 2-4 hrs followed by addition of SDS-solution and photometric end point measurement at 595 nm.
# (§6) Student's unpaired t-test is used for testing for statistical significance when comparing uninjured controls with the injured neuronal rescue agent containing conditions.
# [3] = Striatal cell culture, 30 nM okadaic acid injury, MTT viability; format: cell-based, Wistar rats; settings: Wistar, rat; okadaic acid alone, other studies FIGS. 2-6 (striatal and cortical cultures); read-out: decrease in numbers of viable cells
# Excerpt: (§7) Two pregnant Wistar rats (gestational day 18) underwent Caesarean section according to approved procedures from the Animal Ethics Committee of the University of Auckland. The Wistar dams were anaesthetised in a CO2-enriched atmosphere and sacrificed by subsequent spinal cord dislocation. The embryos were removed from their embryonic sacs and decapitated. After incisions into the skull with fine scissors, the embryonic brain was removed with a fine spatula. Striatal tissue was separated from neocortical tissue under the microscope and placed into serum-free DMEM/F-12 medium supplemented with penicillin/streptomycin (100 u/mL). Tissue underwent 15 trituration steps using a P1000 pipettor to obtain dissociated cells, which were centrifuged for 5 min at 250 G (4° C.) and the supernatant was discarded. Cells were re-suspended into 1 mL DMEM/F-12 medium and were kept on ice. Cell suspension (400,000 cells/cm2) was applied to 0.1 mg/mL poly-L-lysine pre-coated 96-well plates (3 h at 37° C.) and the volume was increased up to 100 μL with DMEM/F-12+5% FBS. Cells were cultivated at 37° C. in 100% humidity in a 5% CO2 atmosphere. After 24 h the medium was changed to serum-free Neurobasal/B27. Cell medium was changed every 3 days and maintained until 8 days in vitro (DWV).
# (§8) Striatal cells were injured after 2, 3, 7 or 8 days in vitro. The injury paradigm involved 30 nM okadaic acid treatment with simultaneous administration of a GPE analog of this invention for 24 h. 1 μL of 3 μM okadaic acid stock solution together with 1 μL of GPE analog dissolved in PBS (vehicle received 2 μL of PBS) were incubated for 24 h with the striatal cells. Subsequently, 20 μL MTT (5 mg/mL in PBS) was added for 4 h. The reaction was terminated by addition of 100 μL 4% sodium dodecyl sulfate (SDS) solution. After 16-24 h incubation time, photometric extinction values are read at 595 nm. The difference between the vehicle and the okadaic acid injury condition was calculated. This value was set as the theoretical 100% recovery value. Measured values for the tested compounds were expressed in percentage of the 100% value. The unpaired Student's t-test was used for statistical analysis.
# [4] = tested on: striatal cells; experiment: as above; format: cell-based, Wistar rats; settings: for neuroprotection against okadaic acid induced loss of cell viability: okadaic acid (30 nM), 24 h, MTT, striatal cell culture (FIGS. 3, 4, 6)
# Excerpt: as §7, §8
# [5] = tested on: cortical cell culture; experiment: Rat cortical dissociated cell culture, okadaic acid injury, MTT viability; settings: 100 nM okadaic acid
# Protocol: as §1, §2, §3, §4, §5, §6
# [6] = tested on: N-methyl-D-aspartate (NMDA) receptor; settings: background statement; cited from earlier work
# [7] = target: IGF-1 receptor (Homo sapiens, UniProt P08069); settings: background statement; cited from earlier work
# [8] = 24 hrs, MTT, cortical cell culture (FIG. 1)
# Sequence of IGF-1 receptor (P08069 31-736 limits assumed): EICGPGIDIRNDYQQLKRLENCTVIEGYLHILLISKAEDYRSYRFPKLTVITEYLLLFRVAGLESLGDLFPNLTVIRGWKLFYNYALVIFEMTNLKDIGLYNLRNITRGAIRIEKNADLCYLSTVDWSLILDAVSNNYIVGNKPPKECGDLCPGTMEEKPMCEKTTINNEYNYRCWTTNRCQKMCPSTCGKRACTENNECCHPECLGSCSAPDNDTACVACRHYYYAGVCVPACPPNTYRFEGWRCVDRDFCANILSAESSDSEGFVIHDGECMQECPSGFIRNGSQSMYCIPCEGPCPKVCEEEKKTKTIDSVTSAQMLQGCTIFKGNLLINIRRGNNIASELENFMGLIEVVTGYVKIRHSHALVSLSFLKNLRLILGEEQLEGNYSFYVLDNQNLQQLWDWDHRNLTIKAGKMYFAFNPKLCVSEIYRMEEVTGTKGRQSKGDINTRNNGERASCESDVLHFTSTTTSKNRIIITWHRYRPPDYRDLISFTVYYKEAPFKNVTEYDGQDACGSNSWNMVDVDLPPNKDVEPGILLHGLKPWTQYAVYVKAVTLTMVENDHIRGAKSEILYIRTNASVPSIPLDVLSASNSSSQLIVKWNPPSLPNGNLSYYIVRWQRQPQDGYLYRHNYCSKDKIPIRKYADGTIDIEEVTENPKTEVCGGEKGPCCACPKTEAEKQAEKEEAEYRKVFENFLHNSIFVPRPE
# Sequence of IGF-1 receptor (P08069 741-1367 partner limits assumed): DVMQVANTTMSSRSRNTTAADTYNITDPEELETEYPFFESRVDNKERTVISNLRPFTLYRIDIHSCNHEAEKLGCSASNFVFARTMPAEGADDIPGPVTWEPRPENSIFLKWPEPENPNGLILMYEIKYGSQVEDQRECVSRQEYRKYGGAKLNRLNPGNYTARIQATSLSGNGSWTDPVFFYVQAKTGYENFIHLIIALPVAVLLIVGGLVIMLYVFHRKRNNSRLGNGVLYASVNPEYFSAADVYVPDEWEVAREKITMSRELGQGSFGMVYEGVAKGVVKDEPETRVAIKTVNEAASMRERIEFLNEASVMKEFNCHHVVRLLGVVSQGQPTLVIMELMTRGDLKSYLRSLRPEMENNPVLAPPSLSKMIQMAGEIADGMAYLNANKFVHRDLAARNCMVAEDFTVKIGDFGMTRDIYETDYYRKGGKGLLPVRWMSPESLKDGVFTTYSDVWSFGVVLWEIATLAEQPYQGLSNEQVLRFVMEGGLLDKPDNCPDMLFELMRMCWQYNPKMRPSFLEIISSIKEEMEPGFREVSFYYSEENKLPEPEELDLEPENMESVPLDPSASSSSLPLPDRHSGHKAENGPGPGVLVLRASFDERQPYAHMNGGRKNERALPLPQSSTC
smiles,measurement,setting,value
"C=C1[C@@H](O)[C@@H]2O[C@]3(CC[C@H](/C=C/[C@@H](C)[C@@H]4CC(C)=C[C@@]5(O[C@H](C[C@@](C)(O)C(=O)O)CC[C@H]5O)O4)O3)CC[C@H]2O[C@@H]1[C@@H](O)C[C@H](C)[C@H]1O[C@@]2(CCCCO2)CC[C@H]1C [okadaic acid, reference compound]",decrease in the number of cells having neurites,[1],over 80%
same,cytotoxicity at 24 h,[2],~30%
same,cytotoxicity at 24 h,[3],10 to 50%
"CC(C)(N)C(=O)N1CCC[C@H]1C(=O)N[C@@H](CCC(=O)O)C(=O)O [analog 64, Aminoisobutryl-L-prolyl-L-glutamic acid] (H-[Aib]-Pro-Glu-OH)",protection from the loss of neural cell viability induced by okadaic acid,"[4]; at 1 mM, 30 nM okadaic acid, striatal (FIG. 4)",complete protection
same,neuroprotective efficacy compared with GPE,"[4]; concentration range 100 μM to 1 mM, 30 nM okadaic acid, striatal (FIG. 4)",more effective than GPE
same,neuroprotection against okadaic acid induced loss of cell viability,[4],neuroprotective
"NCC(=O)N1CCCCC1C(=O)N[C@@H](CCC(=O)O)C(=O)O (stereo partly drawn) [analog 66, Glycyl-D,L-pipecolinyl-L-glutamic Acid] (H-Gly-[ξPip]-Glu-OH)",statistical significance of neuroprotective effect,"[4]; at concentrations of 100 nM, 100 mM and 1 mM, okadaic acid, striatal (FIG. 6)",statistically significant effects
same,neuroprotection against okadaic acid induced loss of cell viability,[4],neuroprotective
"CC1(C)SCN(C(=O)CN)[C@@H]1C(=O)N[C@@H](CCC(=O)O)C(=O)O [analog 49, Glycyl-L-thia-5,5-dimethylprolyl-L-glutamic acid]",neuroprotection against okadaic acid induced loss of cell viability,[5]; [8],neuroprotective
same,protection against loss of neural cell viability caused by okadaic acid,"[5]; concentration range 10 nM to 10 μM, cortical cell culture (FIG. 1)",100%
"CCC[C@H](NC(=O)[C@@H]1CCCN1C(=O)CN)C(=O)O [analog 65, Glycyl-L-prolyl-L-Norvaline] (H-Gly-Pro-[Nva]-OH)",protection against loss of cell viability induced by okadaic acid,"[5]; at nearly every concentration tested (10 nM to 1 mM), cortical cell culture (FIG. 5)",100%
same,neuroprotection against okadaic acid induced loss of cell viability,"[5]; broad range of concentrations, 10 nM to 1 mM, cortical cell culture (FIG. 5)",neuroprotective
"NCC(=O)N1CCC[C@H]1C(=O)N[C@@H](CCC(=O)O)C(=O)O [GPE, Glycyl-L-Prolyl-L-Glutamate]",binding affinity to NMDA receptor,[6],low affinity
same,neuroprotection against okadaic acid induced loss of cell viability,[5]; [8],reversed the okadaic acid induced loss of cell viability
same,binding to IGF-1 receptor,[7],does not bind
"NCC(=O)N1C[C@H](O)C[C@H]1C(=O)N[C@@H](CCC(=O)O)C(=O)O [analog 60, Glycyl-trans-4-hydroxy-L-prolyl-L-glutamic acid] (H-Gly-[Hyp]-Glu-OH)",statistical significance of neuroprotective effect,"[4]; at concentrations of 100 nM and 100 μM and 1 mM, 30 nM okadaic acid, striatal (FIG. 3)",statistically significant effects
same,neuroprotection against okadaic acid induced loss of cell viability,[4],neuroprorotective
